What was measured:
[1] = biological target: T1, TTR (Homo sapiens (Human), UniProt P02766); assay: Determination of IC50 using the FP assay (HTS format); format: binding; settings: read-out: IC50 (50% decrease in the FP signal); repurchased top 33 hits, 10-point duplicate dose-response
[2] = biological target: WT TTR (Homo sapiens (Human), UniProt P02766); assay: Acid-mediated fibril formation assay for TTR amyloidogenesis (turbidity); settings: ligand 7.2 μM, TTR 3.6 μM, pH 4.4, 37° C., 72 h; no inhibitor = 100%
Method: The efficacy of each compound to inhibit TTR amyloidogenesis was determined by monitoring the turbidity of TTR aggregation at acidic pH, as described previously. […] The final 1 ml sample mixture was vortexed, then incubated at 37° C. for 72 hours, after which the sample was vortexed and the optical density was measured at 400 nm on a Beckman DU® 640 spectrophotometer. […] The optical density was also corrected for the absorption of all test compounds in the absence of TTR. […] The optical density (400 nm) was measured as described above at 0, 24, 48, 72, 96, and 120 hours. All assays were performed in triplicate and the average values obtained are presented.
TTR was preincubated with small molecules for 30 min at room temperature before amyloidosis was initiated (lowering pH to 4.4, incubation at 37° C.). […] The amyloidogenesis inhibition efficacy of each compound was determined by monitoring the turbidity of TTR (400 nm). The extent of TTR amyloidogenesis was quantitated at a fixed time point (72 h). All amyloid fibril formation data was normalized to TTR amyloidogenesis in the absence of inhibitor, assigned to be 100% fibril formation. […] The aggregation inhibition was monitored over 5 days using the acid-mediated fibril formation assay (compared to 3 days for the fixed time point described above) (FIG. 5B).

[3] = tested on: V122I TTR cytotoxicity in human AC16 cardiac cells; assay: Inhibition of V122I TTR cytotoxicity; settings: V122I TTR and ligand 8 μM each, AC16, 24 h
Method: (§1) The human cardiac cell line AC16 was maintained in DMEM:F12 (1:1) supplemented with 10% FBS, 1 mM Hepes buffer, 2 mM L-glutamine, 100 units/mL penicillin and 100 μg/mL streptomycin. Two to 4-day-old cultures (˜70% confluent) were used for the experiments.
(§2) Recombinant WT TTR purified in the cold in HBSS (Mediatech, Manassas, Va.) was used as a cytotoxic insult to IMR-32 cells and the amyloidogenic V122I TTR was used as cytotoxic insult to cardiac AC16 cells. Candidate compounds (16 mM in DMSO) were diluted 1:1000 with WT TTR or V122I TTR (16 mM in HBSS, filter sterilized) or with HBSS only. The mixtures were vortexed and incubated for 24 h at 4° C. WT TTR or V122I TTR (16 mM in HBSS) containing the same amount of DMSO than TTR/candidate compound mixtures was prepared in parallel and incubated under the same conditions.
(§3) The neuroblastoma IMR-32 and the cardiac AC16 cells were seeded in black wall, clear bottom, tissue culture treated 96-well plates (Costar) at a density of 6,000 cells/well and 250 cells/well, respectively in Opti-mem supplemented with 5% FBS, 1 mM Hepes buffer, 2 mM L-glutamine, 100 units/mL penicillin and 100 μg/mL streptomycin, 0.05 mg/mL CaCl2 and incubated overnight at 37° C. The medium was then removed and replaced immediately by the TTR/compound or HBSS previously diluted 1:1 in Opti-mem supplemented with 0.8 mg/mL BSA, 2 mM Hepes buffer, 4 mM L-glutamine, 200 units/mL penicillin, 200 μg/mL streptomycin and 0.1 mg/mL CaCl2. The cells were incubated 24 h at 37° C. after which cell viability was measured.
(§4) Cell viability of the cells treated with TTR or TTR/candidate compound was evaluated by a resazurin reduction assay. Briefly, 10 μL/well of resazurin (500 mM, PBS) was added to each well and incubated for 2-3 h at 37° C. Viable cells reduce resazurin to the highly fluorescent resorufin dye, which is quantitated in a multiwell plate reader (Ex/Em 530/590 nm, Tecan Safire2, Austria). Cell viability was calculated as percentage of fluorescence relative to cells treated with vehicle only (100% viability) after subtraction of blank fluorescence (wells without cells). All experimental conditions were performed at least in six replicates. Averages and SEM corresponding to 2 independently performed experiments were calculated.
(§5) The compounds under study were pre-incubated with WT TTR or V122I TTR for 24 h at 4° C. at equimolar concentrations (8 μM) and added to IMR-32 cells or AC16 cells, respectively. Cell viability was measured after 24 h by a resazurin reduction assay. […] The percentage of viable cells was calculated relative to cells treated with vehicle only (cell culture media and DMSO)—which were assigned to be 100% viable.

[4] = tested on: WT TTR cytotoxicity in human IMR-32 neuroblastoma cells; assay: Inhibition of WT TTR cytotoxicity; settings: WT TTR and ligand 8 μM each, IMR-32, 24 h
Method: as §1, §2, §3, §4, §5

[5] = biological target: human wild type TTR (Homo sapiens (Human), UniProt P02766); assay: Isothermal titration calorimetry (ITC) of ligands against TTR; format: binding
Method: Calorimetric titrations were carried out on a VP-ITC calorimeter (MicroCal, Northhampton, Mass.). […] Prior to each titration, all samples were degassed for 10 minutes. The initial injection of 3.0 μL was followed by 30 injections of 8.0 μL each (25° C.) to the point that TTR was fully saturated with ligand. Integration of the thermogram after subtraction of blanks yielded a binding isotherm that was analyzed with MicroCal Origin 5.0 software.

[6] = biological target: wild type biotinylated TTR (Homo sapiens (Human), UniProt P02766); assay: Surface plasmon resonance (SPR) assay on immobilized biotinylated TTR; format: binding
Method: To an ice-cold solution of TTR (20 μM) in PBS was added EZ-Link Sulfo-NHS-LC-Biotin at a ratio of ˜2:1 (biotin:TTR) (minimal biotinylation) and the solution was incubated at room temperature. After 1 hour, un-reacted biotin was removed by passing the sample over a fast (FPLC) desalting column (Superdex™ 75) equilibrated with PBS.
SPR measurements were performed at 25° C. using a Biacore T100 (GE Healthcare) instrument equilibrated in 1% DMSO in PBS as a running buffer. After pretreatment of the streptavidin-coated chip (Sensor Chop SA, Biacore), ˜4000 RU biotinylated TTR was immobilized on one channel leaving the second flow channel as a blank (streptavidin alone) control. For binding measurements, HTS hits were diluted in running buffer (1% DMSO/PBS) and different dilution series were flowed over the chip at 50 μL/min ([…], 600 s wash). A zero concentration sample was used as a negative control. The kinetic data was fitted to a one-to-one binding model using Biacore T100 evaluation software.

[7] = biological target: T1, TTR; assay: FP saturation binding experiment; settings: FITC alone
Method: The binding of probe 5 for TTR was evaluated as follows. […] The samples were allowed to equilibrate by agitation for 20 min at room temperature. Fluorescence polarization (excitation λ 485 nm, emission λ 525 nm, Cutoff λ 515 nm) measurements were taken using SpectraMax M5 Microplate Reader (Molecular Devices). […] Nonspecific FP, produced by the free fluorescent probe 5 as well as by binding of 5 to the plate, was equal to 70±10 mP.

Compound | Prevention of TTR-induced cytotoxicity [3] | Prevention of TTR-induced cytotoxicity [4] | other results
Cc1ccc(Cl)c(Nc2ccccc2C(=O)O)c1Cl | – | – | IC50 [1]: 0.504 µM; % fibril formation [2]: 3.87 ± 0.93%
O=[N+]([O-])c1cc(O)c(O)c([N+](=O)[O-])c1 [3,5-dinitrocatechol, 3,5-dinitrocatechol, reference compound] | poor inhibitor | poor inhibitor | –
O=C(O)c1ccccc1Nc1cc(Cl)c(OCCOCCOCCNC(=S)Nc2ccc3c(c2)C(=O)OC32c3ccc(O)cc3Oc3cc(O)ccc32)c(Cl)c1 [Compound 5, 2-(3,5-dichloro-4-(2-(2-(2-(3-(3′,6′-dihydroxy-3-oxo-3H-spiro[isobenzofuran-1,9′-xanthene]-5-yl)thioureido)ethoxy)ethoxy)ethoxy)phenylamino)benzoic acid] | – | – | Decrease in binding affinity to TTR relative to 4 (fold) [5]: ~3 fold
Cc1n[nH]c(C)c1CCCOc1ccccc1F [Compound 7] | completely prevented | completely prevented | –
CN1C(=N)NC(=O)/C1=C/c1cc(Br)c(O)c(Br)c1 [Compound 14] | completely prevented | completely prevented | –
Cc1n[nH]c(C)c1CCc1nc2c3ccccc3[nH]c(=S)n2n1 [Compound 15] | completely prevented | completely prevented | –
O=C(O)Cc1ccccc1Nc1c(Cl)cccc1Cl [Diclofenac] | – | – | lower target residence time than 7 (fold) [6]: ~40 ×
O=C(O)c1cccnc1Nc1cccc(C(F)(F)F)c1 [Niflumic acid, niflumic acid, reference compound] | relatively poor inhibitor | – | –
O=C(c1cc(O)c(O)c([N+](=O)[O-])c1)c1ccccc1F [Ro 41-0960, reference compound] | completely prevented | completely prevented | –
O=C(O)Cc1ccccc1Nc1c(Cl)cccc1Cl [drawing 78] | – | – | IC50 [1]: 3.74 µM; % fibril formation [2]: 11.56 ± 0.72%
Fluorescein isothiocyanate [FITC] | – | – | Interaction with TTR (change in FP signal upon addition of TTR) [7]: no interaction with TTR

— patent US11337935B2, “Identification of stabilizers of multimeric proteins” (The Board of Trustees of the Leland Stanford Junior …, priority 2010, dated 2022)
